# Reference: patent US20230413814A1, “A METHOD FOR REMOVING A BIOFILM” (TECHNOLOGICAL UNIVERSITY DUBLIN, priority 2020, published 2023)
# Legend:
# [1] = system: Enterococcus faecalis ATCC 7080; assay: Biofilm formation in 96 well plate, crystal violet assay; type: cell-based; settings: for reduction of biofilm formation versus control: 24 hours, 37° C., FIG. 1 B
# Protocol: (§1) FIG. 1: The effect of varying concentrations of DHA on the ability of Klebsiella pneumoniae NCIMB 418 (A) and Enterococcus faecalis ATCC 7080 (B) to form a biofilm in vitro. (10^6 CFU/well was incubated with various concentrations of DHA in a 96 well plate for 24 hours statically at 37° C. Biofilm formation was assessed using the crystal violet assay. Data represents the mean±SD for six independent experiments, carried out in triplicate. One-way ANOVA was performed for statistical analysis. *****P<0.001 compared to both the control (no DHA) and vehicle control (1% DMSO).
# (§2) The effect of varying concentrations of DHA on the ability of Klebsiella pneumoniae NCIMB 418 and Enterococcus faecalis ATCC 7080 to form a biofilm in vitro was investigated. 10^6 CFU/well was incubated with various concentrations of DHA in a 96 well plate for 24 hours statically at 37° C. Biofilm formation was assessed using the crystal violet assay. Data represents the mean±SD for six independent experiments, carried out in triplicate. The assay involved seeding cells at 10^6 CFU/ml in media with DHA. Cells were then left for 24 hrs to form biofilms before washing and staining with Crystal Violet. Crystal violet adhered to cells stuck to the sides of the tube/well. The samples were washed again to remove any unbound dye before dissolving the stain in acetic acid and the reading was measured in a spectrophotometer. The colour intensity relates to the level of biofilm present. The more colour the more bacteria in the biofilm (Merrit, J. H, et al., (2005) “Growing and Analysing Static Biofilms”, Current Protocols in Microbiology, Chapter 1(July), p. Unit 1B.1.).
# [2] = system: Klebsiella pneumoniae NCIMB 418; assay: as above; type: cell-based; settings: for reduction of biofilm formation versus control: 24 hours, 37° C., FIG. 1 A
# Protocol: as §1, §2
# [3] = system: human gingival fibroblasts (HGFs); parameters: dose or concentration left out as unconfirmed; settings: exposed for 24 and 48 hours; cited from earlier work
# [4] = system: human periodontal ligament cells (hPDLCs); parameters: dose or concentration left out as unconfirmed; settings: exposed for 24 and 48 hours; cited from earlier work
# [5] = summary statement on FIG. 1, concentration not stated
smiles,measurement,setting,value
"CC/C=C\C/C=C\C/C=C\C/C=C\C/C=C\C/C=C\CCC(=O)O [DHA, docosahexaenoic acid]",reduction of biofilm formation versus control,[1]; DHA 6.25 μM,~20%
same,reduction of biofilm formation versus control,[1]; DHA 100 μM,~65%
same,reducing biofilm formation,[1]; [5],approximately 60%
same,reduction of biofilm formation versus control,[2]; DHA 6.25 μM,~40%
same,reduction of biofilm formation versus control,[2]; DHA 100 μM,~65%
same,reducing biofilm formation,[2]; [5],approximately 60%
same,cytotoxic effects,[3],exhibited cytotoxic effects
same,cytotoxic effects,[4],exhibited cytotoxic effects
